Data reported in ChEMBL document CHEMBL1138307, “Structure activity relationship studies of carboxamido-biaryl ethers as opioid receptor antagonists (OpRAs). Part 2” (Bioorg Med Chem Lett, 2007).
pKi: −log10 of the molar value.

Key:
Type in all cases: cell-based
Mu-type opioid receptor = Mu-type opioid receptor (Homo sapiens, UniProt P35372); test: Displacement of [3H]diprenorphine from cloned human mu opioid receptor expressed in CHO cells
[1] = target: Kappa-type opioid receptor (Homo sapiens, UniProt P41145); test: Displacement of [3H]diprenorphine from cloned human kappa opioid receptor expressed in CHO cells
Chain of Kappa-type opioid receptor (P41145 whole entry): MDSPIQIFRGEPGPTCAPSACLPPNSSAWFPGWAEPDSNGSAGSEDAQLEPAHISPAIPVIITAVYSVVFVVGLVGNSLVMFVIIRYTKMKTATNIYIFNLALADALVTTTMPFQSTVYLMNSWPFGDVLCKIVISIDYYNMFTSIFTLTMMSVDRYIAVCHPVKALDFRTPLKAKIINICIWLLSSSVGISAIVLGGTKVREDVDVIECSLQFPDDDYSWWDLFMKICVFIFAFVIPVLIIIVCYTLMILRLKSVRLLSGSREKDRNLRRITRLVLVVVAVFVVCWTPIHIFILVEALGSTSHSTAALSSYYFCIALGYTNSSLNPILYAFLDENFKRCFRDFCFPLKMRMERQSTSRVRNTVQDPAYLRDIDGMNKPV

[2] = target: Delta-type opioid receptor (Homo sapiens, UniProt P41143); test: Displacement of [3H]bremazocine from cloned human delta opioid receptor expressed in CHO cells
Chain of Delta-type opioid receptor (P41143 whole entry): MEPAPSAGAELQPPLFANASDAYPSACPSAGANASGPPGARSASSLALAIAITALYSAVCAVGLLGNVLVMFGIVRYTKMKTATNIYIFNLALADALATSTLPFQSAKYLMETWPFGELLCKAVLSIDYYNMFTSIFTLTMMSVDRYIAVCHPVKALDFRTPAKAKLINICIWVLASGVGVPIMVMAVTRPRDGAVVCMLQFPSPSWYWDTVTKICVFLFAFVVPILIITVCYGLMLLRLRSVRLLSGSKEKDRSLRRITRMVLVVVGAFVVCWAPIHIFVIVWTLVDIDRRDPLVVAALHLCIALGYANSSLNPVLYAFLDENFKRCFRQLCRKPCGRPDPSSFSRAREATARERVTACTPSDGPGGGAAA

Chain of Mu-type opioid receptor (P35372 whole entry): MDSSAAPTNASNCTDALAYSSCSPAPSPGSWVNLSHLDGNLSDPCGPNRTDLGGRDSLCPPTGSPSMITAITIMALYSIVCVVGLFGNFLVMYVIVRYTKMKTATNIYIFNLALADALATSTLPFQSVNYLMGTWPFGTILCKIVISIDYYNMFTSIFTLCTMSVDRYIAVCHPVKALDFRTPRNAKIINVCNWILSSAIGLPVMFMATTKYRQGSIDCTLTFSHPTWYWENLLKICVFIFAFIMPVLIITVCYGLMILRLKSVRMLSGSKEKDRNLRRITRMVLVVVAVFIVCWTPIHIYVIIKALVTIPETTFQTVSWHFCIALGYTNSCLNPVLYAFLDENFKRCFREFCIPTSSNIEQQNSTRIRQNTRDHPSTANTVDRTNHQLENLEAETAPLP

Structure (SMILES) | pKi (Mu-type opioid receptor) | pKi [1] | pKi [2]
NC(=O)c1ccc(Oc2ccc3c(c2)CN(CCc2ccccc2)C3)nc1 | 6.18 | < 5.30 | 5.64
NC(=O)c1ccc(Oc2ccc3c(c2)CCN(Cc2ccccc2)C3)nc1 | 6.75 | 5.67 | 5.63
NC(=O)c1ccc(Oc2ccc3c(c2)CCN(CCCc2ccccc2)C3)nc1 | 6.73 | 6.26 | 5.67
NC(=O)c1ccc(Oc2ccc3c(c2)CN(CCc2ccccc2)CC3)nc1 | < 5.48 | 5.44 | < 5.30
NC(=O)c1ccc(Oc2ccc3c(c2)CCCN(CCc2ccccc2)C3)nc1 | 8.00 | 6.44 | 6.77
NC(=O)c1ccc(Oc2ccc3c(c2)CCN(Cc2ccccc2)CC3)nc1 | 6.39 | 5.54 | 5.57
NC(=O)c1ccc(Oc2ccc3c(c2)CCN(CCc2ccccc2)CC3)nc1 | 7.04 | < 5.31 | 5.86
NC(=O)c1ccc(Oc2ccc(CCN3CCc4ccccc4C3)cc2)nc1 | 8.30 | 6.73 | 6.84
CCCCN1CCCc2cc(Oc3ccc(C(N)=O)cn3)ccc2C1 | 7.68 |  | 6.30
CCCCCN1CCCc2cc(Oc3ccc(C(N)=O)cn3)ccc2C1 | 7.93 | 6.98 | 6.73
CCCCCCN1CCCc2cc(Oc3ccc(C(N)=O)cn3)ccc2C1 | 7.92 | 6.93 | 6.79
CC(C)CCN1CCCc2cc(Oc3ccc(C(N)=O)cn3)ccc2C1 | 7.95 | 7.11 | 6.63
CC(C)CCCCN1CCCc2cc(Oc3ccc(C(N)=O)cn3)ccc2C1 | 7.92 | 6.50 | 6.62
CCC(CC)CN1CCCc2cc(Oc3ccc(C(N)=O)cn3)ccc2C1 | 7.38 | 7.21 | 5.41
NC(=O)c1ccc(Oc2ccc3c(c2)CCCN(CCCC2CCCCC2)C3)nc1 | 7.38 | 6.15 | 6.33
NC(=O)c1ccc(Oc2ccc3c(c2)CN(Cc2ccccc2)C3)nc1 | 6.00 | < 5.30 | < 5.30
NC(=O)c1ccc(Oc2ccc3c(c2)CCCN(CCN2CCOCC2)C3)nc1 | 6.89 | 6.44 | 5.72
NC(=O)c1ccc(Oc2ccc3c(c2)CCCN(CCCN2CCOCC2)C3)nc1 | 6.67 | 5.49 | 5.59
CC(C)CCCN1CCCc2cc(Oc3ccc(C(N)=O)cn3)ccc2C1 | 8.12 | 6.97 | 6.97
CC(C)(C)CCN1CCCc2cc(Oc3ccc(C(N)=O)cn3)ccc2C1 | 7.74 | 7.14 | 6.39
NC(=O)c1ccc(Oc2ccc3c(c2)CCN(CCc2ccccc2)C3)nc1 | 7.80 | 5.91 | 6.75
NC(=O)c1ccc(Oc2ccc3c(c2)CN(Cc2ccccc2)CC3)nc1 | 6.64 | 5.61 | 5.61
NC(=O)c1ccc(Oc2ccc3c(c2)CCCN(CCCC(F)(F)F)C3)nc1 | 7.61 |  | 6.41
